Assay results published in patent US20060178342A1, “Hyaluronan as a cytotoxic agent, drug pre-sensitizer and chemo-sensitizer in the treatment of disease” (priority 2001, published 2006).

Legend:
MDA-MB-231 = experiment: Breast cancer cell count assay (Coulter counter), HA ± adriamycin; type: cell-based, human
Experimental: (§1) Cell lines MDA-MB-468, MDA-MB-435 and MDA-MB-231 were routinely grown and subcultured as a monolayer in 175 cm^2 culture flasks in Leibovitz L-15 Medium supplemented with 10% Foetal calf serum (FCS) and antibiotic/antimycotic reagents at 37° C. in humidity controlled incubator with 100% (v/v) air.
(§2) For the tests, MDA MB-468, MDA MB-231 and MDA MB-435 cell line were grown in 90% Leibovitz L-15 medium supplemented with 10% FCS. When confluent the cultures were washed 1× in HBSS and trypsinised in 0.25% trypsin/0.05% EDTA. The cell suspensions were counted with an automated cell counter (ZM-2 Coulter Counter) by adding 15 mL saline+0.2 ml of cell suspension. • Cells were resuspended to a number of:
(§3) The cells were plated into 48-well plates (1 cm^2 surface area) by adding 1 ml of cell suspension per well. • Cells were allowed to attach for 24 h, before the media was removed, monolayers washed. The test media was; growth media containing 0-1 μM adriamycin or 5-fluorouracil with or without the addition of 0-1 μM of HA (modal Mw 750,000).
(§4) The cells were exposed to the several combinations of HA and drugs for different times and at different concentrations (Table 3).
(§5) After the incubation and growth periods the cell monolayers were washed with HBSS and trypsinised in 0.25% trypsin/0.05% EDTA. The cell suspensions were counted with an automated cell counter (ZM-2 Coulter Counter) by adding 15 mL saline+0.2 ml of cell suspension. Results were expressed as % of no drug control which was calculated as: […]

MDA-MB-435 = experiment: as above; type: cell-based, human
Experimental: as §1, §2, §3, §4, §5

MDA-MB-468 = experiment: as above; type: cell-based, human
Experimental: as §1, §2, §3, §4, §5

[1] = test system: human breast cancer cells; experiment: Breast cancer cell count assay, cell line not specified or pooled; type: cell-based; details: HA incubated 30 min, 1 h, 24 h or 3 days
Experimental: The cell suspensions were counted with an automated cell counter (ZM-2 Coulter Counter) by adding 15 mL saline+0.2 ml of cell suspension. • Cells were resuspended to a number of: […] The cell suspensions were counted with an automated cell counter (ZM-2 Coulter Counter) by adding 15 mL saline+0.2 ml of cell suspension. Results were expressed as % of no drug control which was calculated as: […]

[2] = test system: MDA-MB 468 Breast cancer xenografts; experiment: HA alone on breast cancer xenografts, metastasis, body mass and survival; type: in vivo; details: 12.5 mg/kg HA, three regimens; significant in 3/3 experiments
Experimental: To determine the effect of HA on tumor volume in vivo, 12.5 mg/kg of HA was administered on day 1 and 2 of a 7 day cycle for 6 cycles and 12.5 mg/kg on day 1 and 3 of 7 day cycle for 6 cycles (FIG. 9A) or 12.5 mg/kg on day 1 and 8 of 28 day cycle for 6 cycles (FIG. 9B). […] This anti-proliferative effect could be due to the degradation of the HA into apoptotic-inducing fragments and/or the microembolisation effect, which could result in tissue hypoxia and subsequent cell death.
The following table sets forth the results of the administration of HA on breast and colon cancer xenographs, metastasis, body mass and survival in vivo.

HCT-116 = experiment: Effect of HA on cell proliferation; type: cell-based, human; details: 3 days constant exposure, 100 nM
Experimental: (§6) The effect of HA on the proliferation of human breast and colon cancer cell lines was determined according to the methods set forth in the Table 11.

HT-29 = experiment: Effect of HA on cell proliferation; type: cell-based, human; details: 3 days constant exposure, 100 nM
Experimental: as §6

LIM 1215 = experiment: Effect of HA on cell proliferation; type: cell-based, human; details: 3 days constant exposure, 100 nM
Experimental: as §6

LIM 2099 = experiment: Effect of HA on cell proliferation; type: cell-based, human; details: 3 days constant exposure, 100 nM
Experimental: as §6

MDA MB 231 = experiment: Effect of HA on cell proliferation; type: cell-based, human
Experimental: as §6

MDA MB 435 = experiment: Effect of HA on cell proliferation; type: cell-based, human
Experimental: as §6

MDA MB 468 = experiment: Effect of HA on cell proliferation; type: cell-based, human
Experimental: as §6

SK-CO-1 = experiment: Effect of HA on cell proliferation; type: cell-based, human; details: 3 days constant exposure, 100 nM
Experimental: as §6

SW1222 = experiment: Effect of HA on cell proliferation; type: cell-based, human; details: 3 days constant exposure, 100 nM
Experimental: as §6

SW620 = experiment: Effect of HA on cell proliferation; type: cell-based, human; details: 3 days constant exposure, 100 nM
Experimental: as §6

ZR-75-1 = experiment: Effect of HA on cell proliferation; type: cell-based, human; details: 3 days constant exposure
Experimental: as §6

[3] = 6-week study: treatment toxicity (body mass, blood, organ mass, survival)
Description: Animals were monitored daily for GI tract upset such as diarrhea and weekly for more severe toxicity manifestations such as weight loss.
As one of the major toxicities associated with 5-FU treatment is depression of the bone marrow and subsequent drop in white blood cells it was necessary to assess any treatment associated blood toxicity. Upon anaesthetizing the animals, blood was collected from the heart or great vessels using a needle and syringe. Estimation of white blood cell number by making a 1/50 dilution of blood in mouse tenacity saline (M) and counting it on a haemocytometer. A differential blood count was performed by counting-neutrophils, lymphocytes, and erythrocytes. The total estimation of blood cell sub-populations was compared to published data for mouse blood.
The mass of each organ was calculated as a % of the overall net body weight, and compared to the organ masses of the saline only group (Group 1).

[4] = 30 min HA followed by growth for 3 days, 100 nM
[5] = 3 days constant exposure, 100 nM
[6] = 3 days constant exposure, 500 nM
[7] = 3 days constant exposure, 10 μM
[8] = 24 H HA followed by growth for 3 days, 100 nM

## hyaluronan [HA]
MDA-MB-231; HA exposure 30 min 100 nM
  Cytotoxic effect of HA, change in cell number: −27%
MDA-MB-231; HA exposure 30 min 1000 nM
  Cytotoxic effect of HA, change in cell number: −26%
MDA-MB-231; HA exposure 1 h 100 nM
  Cytotoxic effect of HA, change in cell number: −21%
MDA-MB-231; HA exposure 24 h 100 nM
  Cytotoxic effect of HA, change in cell number: −8%
MDA-MB-231; HA exposure 3 days 100 nM
  Cytotoxic effect of HA, change in cell number: −23%
MDA-MB-435; HA exposure 30 min 100 nM
  Cytotoxic effect of HA, change in cell number: −12%
MDA-MB-435; HA exposure 30 min 500 nM
  Cytotoxic effect of HA, change in cell number: 0
MDA-MB-435; HA exposure 1 h 100 nM
  Cytotoxic effect of HA, change in cell number: −4%
MDA-MB-435; HA exposure 24 h 100 nM
  Cytotoxic effect of HA, change in cell number: −12%
MDA-MB-435; HA exposure 3 days 100 nM
  Cytotoxic effect of HA, change in cell number: −22%
MDA-MB-468; HA exposure 30 min 100 nM
  Cytotoxic effect of HA, change in cell number: −5%
MDA-MB-468; HA exposure 30 min 500 nM
  Cytotoxic effect of HA, change in cell number: −22%
MDA-MB-468; HA exposure 30 min 1000 nM
  Cytotoxic effect of HA, change in cell number: +2%
MDA-MB-468; HA exposure 1 h 100 nM
  Cytotoxic effect of HA, change in cell number: +3%
MDA-MB-468; HA exposure 24 h 100 nM
  Cytotoxic effect of HA, change in cell number: −5%
MDA-MB-468; HA exposure 3 days 100 nM
  Cytotoxic effect of HA, change in cell number: −29%
[1]
  reduction in breast cancer cell number: 0-29%
[2]
  % T/C versus saline: lower % T/C
HCT-116
  Effect of HA on cell proliferation (mean ± standard deviation): 92 ± 0 (n = 8) % of untreated control
HT-29
  Effect of HA on cell proliferation (mean ± standard deviation): 82 ± 14 (n = 8) % of untreated control
LIM 1215
  Effect of HA on cell proliferation (mean ± standard deviation): 89 ± 5 (n = 8) % of untreated control
LIM 2099
  Effect of HA on cell proliferation (mean ± standard deviation): 105 ± 2 (n = 16) % of untreated control
MDA MB 231; [4]
  Effect of HA on cell proliferation (mean ± standard deviation): 86 ± 3 (n = 8) % of untreated control
MDA MB 231; [5]
  Effect of HA on cell proliferation (mean ± standard deviation): 106 ± 11 (n = 20) % of untreated control
MDA MB 231; [6]
  Effect of HA on cell proliferation (mean ± standard deviation): 100 ± 1 (n = 8) % of untreated control
MDA MB 231; [7]
  Effect of HA on cell proliferation (mean ± standard deviation): 101 ± 5 (n = 8) % of untreated control
MDA MB 435; [8]
  Effect of HA on cell proliferation (mean ± standard deviation): 111 ± 6 (n = 8) % of untreated control
MDA MB 435; [4]
  Effect of HA on cell proliferation (mean ± standard deviation): 86 ± 6 (n = 12) % of untreated control
MDA MB 435; [5]
  Effect of HA on cell proliferation (mean ± standard deviation): 85 ± 17 (n = 16) % of untreated control
MDA MB 435; [6]
  Effect of HA on cell proliferation (mean ± standard deviation): 55 ± 6 (n = 8) % of untreated control
MDA MB 435; [7]
  Effect of HA on cell proliferation (mean ± standard deviation): 101 ± 1(n = 8) % of untreated control
MDA MB 468; [8]
  Effect of HA on cell proliferation (mean ± standard deviation): 84 ± 1 (n = 4) % of untreated control
MDA MB 468; [4]
  Effect of HA on cell proliferation (mean ± standard deviation): 97 ± 15 (n = 12) % of untreated control
MDA MB 468; [5]
  Effect of HA on cell proliferation (mean ± standard deviation): 99 ± 6 (n = 20) % of untreated control
MDA MB 468; [6]
  Effect of HA on cell proliferation (mean ± standard deviation): 95 ± 3 (n = 8) % of untreated control
MDA MB 468; [7]
  Effect of HA on cell proliferation (mean ± standard deviation): 99 ± 6 (n = 20) % of untreated control
SK-CO-1
  Effect of HA on cell proliferation (mean ± standard deviation): 95 ± 3 (n = 8) % of untreated control
SW1222
  Effect of HA on cell proliferation (mean ± standard deviation): 99 ± 1 (n = 8) % of untreated control
SW620
  Effect of HA on cell proliferation (mean ± standard deviation): 97 ± 1 (n = 8) % of untreated control
ZR-75-1; 100 nM
  Effect of HA on cell proliferation (mean ± standard deviation): 103 ± 4 (n = 20) % of untreated control
ZR-75-1; 500 nM
  Effect of HA on cell proliferation (mean ± standard deviation): 102 ± 1 (n = 8) % of untreated control
ZR-75-1; 10 μM
  Effect of HA on cell proliferation (mean ± standard deviation): 100 ± 3 (n = 8) % of untreated control
[3]
  organ mass toxicity: did not result in any dramatic toxicity
[3]; HA as sole agent or chemosensitizer
  body mass / well being versus 5-FU treatment group: did not loose weight, but maintained its body mass
